Measured values reported in EP0423524A2, “Propiophenone derivatives and their preparation and pharmaceutical use” (MARUHO Co., Ltd., priority 1989, dated 1991).
Where a name gives a salt, the structure may show the parent alone.

How the values were obtained:
Format in all cases: in vivo
Male Slc-ddy mice [1] = test: Anti-nicotinic effect (survival after intravenous nicotine bitartrate); conditions: for Anti-nicotinic effect Effect / anti-nicotinic effect compared with eperisone hydrochloride: 100 mg/10 ml/kg oral; for Anti-nicotinic effect Effect: 30 min, compared with eperisone hydrochloride; for ED50: Mus musculus, 0.5 h, oral, nicotine bitartrate 3 mg/10 ml/kg i.v. after 30 min, Litchfield-Wilcoxon, 95 % confidence limit in brackets, read-out: ED₅₀ values for the anti-nicotinic effect
Protocol: Experimental Method of Male Slc-ddy mice/30 - 35 g (6 weeks old) were used as test animals in groups of 7 - 10. The test compounds (100 mg/10 ml/kg) were orally administered to the mice, and after 30 min, nicotine bitartrate (3 mg/10 ml/kg) was administered intravenously, and the number of animals killed due to tonic convulsion was counted. The surviving animals were judged as having an anti-nicotinic effect, and with the number thereof as index the comparison concerning the anti-nicotinic effect was made with the reference compound (eperisone hydrochloride).

Male Slc-ddy mice [2] = test: Inhibitory effect on the motor coordination (rotating rod test); conditions: for Inhibitory effect on motor coordination Durability / ED50 / inhibitory effect on the motor coordination compared with eperisone hydrochloride: oral; for Inhibitory effect on motor coordination Effect: 300 - 600 mg/10 ml/kg oral, 30 min, compared with eperisone hydrochloride; for ED50: Mus musculus, 0.5 h, rotating rod 30 min after administration, falling off within 60 s counted as positive, 95% confidence limit in brackets, read-out: ED₅₀ values for the inhibitory effect on the motor coordination
Protocol: Male Slc-ddy mice of 20 - 25 g (5 weeks old) were used in groups of 7 - 10. The test compounds were used dissolved or suspended in 0.5 % CMC or 0.5 % Tween 80 solution. Each test compound (300 - 600 mg/10 ml/kg) was orally administered to the mice, and after 30 min the mice were put on a 3-cm diameter rod rotating at a speed of 10 min⁻¹ in a direction opposite to the rotation direction, and the time of staying on it was measured to a maximum of 180 s. Those falling off of the rotating rod within 60 s were judged as having an inhibitory effect on the motor coordination and, with the number of cases as index, comparison was made with the reference compound (eperisone hydrochloride).
The mice were trained in advance to be able to stay on the rotating rod for more than 300 s, and those capable of staying on it for more than 250 s immediately before testing were used.

Acute toxicity test = conditions: mouse, in vivo, po, mice, observation for 7 days, Litchfield-Wilcoxon, 95% confidence limit in brackets, read-out: LD₅₀ values (50% of lethal dose)
Protocol: Male ddy mice of 20-30 g were used as test animals in groups of 5-10. The test compounds were dissolved or suspended in 0.5 % Tween 80 aqueous solution, and orally administered to the mice. Observation was made for 7 days after administration. The LD₅₀ values (50% of lethal dose) (95% confidence limit) were determined by the Litchfield-Wilconxon method, and are shown in Table 4.

Male Slc-ddy mice [3] = test: Anti-strychnine effect (time from tonic convulsions to death after subcutaneous strychnine nitrate); conditions: for ED50: Mus musculus, po, 0.5 h, read-out: ED₅₀ values for the anti-strychnine effect; for anti-strychnine effect compared with eperisone hydrochloride / Anti-strychnine effect Effect: mice, 100 mg/10 ml/kg oral; for Anti-strychnine effect Effect: 30 min, compared with eperisone hydrochloride
Protocol: Strychnine is known to enhance reflex stimulation, among others, of spinal cord to induce convulsions. If this effect of strychnine can be suppressed by administration of any of the above-mentioned compounds, this compound is expected to have a central muscle relaxation effect.
Male Slc-ddy mice of 25 - 30 g (5 weeks old) were used in groups of 7 - 10.
The test compounds (100 mg/10 ml/kg) were orally administered to the mice, and after 30 min, 1.5 mg/10 ml/kg of strychnine nitrate was administered subcutaneously, and the time was measured from the occurence of tonic convulsions to the death of the animals. Cases in which this time was extended to 6 min or more were judged as corresponding to an anti-strychnine effect, and with the number of such cases as index, comparison was made with the reference compound (eperisone hydrochloride). […] The ED₅₀ values (95% confidence limit) for the anti-strychnine effect were determined by the Litchfield-Wilcoxon method and are shown in Table 3.

Structure (SMILES) | Anti-nicotinic effect Effect (Male Slc-ddy mice [1]) | Inhibitory effect on motor coordination Durability (Male Slc-ddy mice [2]) | Inhibitory effect on motor coordination Effect (Male Slc-ddy mice [2]) | further results
CC(Cn1ccnc1)C(=O)c1ccc(-c2ccccc2)cc1 (stereo not drawn) [Compound 12, 1-(4-biphenyl)-3-(1H-imidazol-1-yl)-2-methylpropan-1-one] | ◎ | - |  | 
Cc1ccc(C(=O)C(C)Cn2ccnc2)cc1C (stereo not drawn) [Compound 14, 3-(1H-imidazol-1-yl)-2-methyl-1-(3,4-dimethylphenyl)-propan-1-one] | ◎ |  | 0 | LD50 at 168 h (Acute toxicity test): 209 mg/kg; ED50 (Male Slc-ddy mice [3]): 33 mg/kg; anti-strychnine effect compared with eperisone hydrochloride (Male Slc-ddy mice [3]): stronger anti-strychnine effect than eperisone hydrochloride; Anti-strychnine effect Effect (Male Slc-ddy mice [3]): ◎; anti-nicotinic effect compared with eperisone hydrochloride (Male Slc-ddy mice [1]): stronger anti-nicotinic effect than eperisone hydrochloride; ED50 (Male Slc-ddy mice [1]): 32 mg/kg; ED50 (Male Slc-ddy mice [2]): 100 mg/kg; inhibitory effect on the motor coordination compared with eperisone hydrochloride (Male Slc-ddy mice [2]): stronger inhibitory effect on the motor coordination than eperisone hydrochloride
CCCc1ccc(C(=O)C(C)Cn2ccnc2)cc1 (stereo not drawn) [Compound 9, 3-(1H-imidazol-1-yl)-2-methyl-1-(4-n-propylphenyl)-propan-1-one] | ◎ |  | 0 | 
CCc1ccc(C(=O)C(C)Cn2cncn2)cc1 (stereo not drawn) [Compound 27, 1-(4-ethylphenyl)-2-methyl-3-(1H-1,2,4-triazol-1-yl)-propan-1-one] | ○ | - | ○ | 
CC(Cn1ccnc1)C(=O)c1ccc2ccccc2c1 (stereo not drawn) [Compound 15, 3-(1H-imidazol-1-yl)-2-methyl-1-(2-naphthyl)-propan-1-one] | ◎ | - | 0 | Anti-strychnine effect Effect (Male Slc-ddy mice [3]): ◎; ED50 (Male Slc-ddy mice [2]): 152 mg/kg; inhibitory effect on the motor coordination compared with eperisone hydrochloride (Male Slc-ddy mice [2]): stronger inhibitory effect on the motor coordination than eperisone hydrochloride
CC(Cn1ccnc1)C(=O)c1ccccc1 (stereo not drawn) [Compound 8, 3-(1H-imidazol-1-yl)-2-methyl-1-phenyl-propan-1-one] |  |  | 0 | 
CCc1ccc(C(=O)C(C)(C)CN2CCCCC2)cc1 [Compound 6, 1-(4-ethylphenyl)-2,2-dimethyl-3-piperidinopropan-1-one] | 0 |  | ◎ | 
CC(C)(CN1CCCC1)C(=O)c1ccc(Cl)cc1 [Compound 25, 1-(4-chlorophenyl)-2,2-dimethyl-3-(pyrrolidin-1-yl)-propan-1-one] | ○ |  | ◎ | 
CCc1ccc(C(=O)C(CN2CCCCC2)C(C)C)cc1 (stereo not drawn) [Compound 5, 1-(4-ethylphenyl)-2-isopropyl-3-piperidinopropan-1-one] | 0 | - | 0 | 
CCc1ccc(C(=O)C(CN2CCCC2)c2ccccc2)cc1.Cl (stereo not drawn) [Compound 24, 1-(4-ethylphenyl)-2-phenyl-3-(pyrrolidin-1-yl)-propan-1-one hydrochloride] | ○ |  | ○ | 
Cc1ccc(C(=O)C(C)Cn2ccnc2)c(C)c1.Cl (stereo not drawn) [Compound 13, 3-(1H-imidazol-1-yl)-2-methyl-1-(2,4-dimethylphenyl)-propan-1-one hydrochloride] | ◎ | - | 0 | 
CCc1ccc(C2(C(C)Cn3ccnc3)OCCO2)cc1 (stereo not drawn) [Compound 23] | ◎ |  | ◎ | LD50 at 168 h (Acute toxicity test): 415 mg/kg; ED50 (Male Slc-ddy mice [3]): 155 mg/kg; anti-strychnine effect compared with eperisone hydrochloride (Male Slc-ddy mice [3]): stronger anti-strychnine effect than eperisone hydrochloride; Anti-strychnine effect Effect (Male Slc-ddy mice [3]): ○; anti-nicotinic effect compared with eperisone hydrochloride (Male Slc-ddy mice [1]): stronger anti-nicotinic effect than eperisone hydrochloride; ED50 (Male Slc-ddy mice [1]): 46 mg/kg; ED50 (Male Slc-ddy mice [2]): 210 mg/kg; inhibitory effect on the motor coordination compared with eperisone hydrochloride (Male Slc-ddy mice [2]): stronger inhibitory effect on the motor coordination than eperisone hydrochloride
CCc1ccc(C(O)C(C)Cn2ccnc2)cc1 (stereo not drawn) [Compound 22, 1-(4-ethylphenyl)-3-(1H-imidazol-1-yl)-2-methylpropan-1-ol] | ◎ |  | ◎ | Anti-strychnine effect Effect (Male Slc-ddy mice [3]): ○; inhibitory effect on the motor coordination compared with eperisone hydrochloride (Male Slc-ddy mice [2]): stronger inhibitory effect on the motor coordination than eperisone hydrochloride
CC(Cn1ccnc1)C(=O)c1ccc2c(c1)Cc1ccccc1-2 (stereo not drawn) [Compound 20, 1-(9H-fluoren-2-yl)-3-(1H-imidazol-1-yl)-2-methylpropan-1-one] | ◎ | - | ◎ | Anti-strychnine effect Effect (Male Slc-ddy mice [3]): ○
CCc1ccc(C(=O)C(C)CN2CCN(CC(C)C(=O)c3ccc(CC)cc3)CC2)cc1.Cl.Cl (stereo not drawn) [Compound 1, N,N'-bis[2-(4-ethylbenzoyl)-propyl]-piperazine dihydrochloride] |  | - | 0 | 
CC(Cn1ccnc1)C(=O)c1ccc(Cl)cc1 (stereo not drawn) [Compound 3, hydrochloride] | 0 |  | 0 | 
CCc1ccc(C(=O)CCn2ccnc2)cc1 [Compound 17, 1-(4-ethylphenyl)-3-(1H-imidazol-1-yl)-propan-1-one] | ○ | - | ○ | 
CCc1ccc(C(=O)C(C)Cn2ccnc2C)cc1 (stereo not drawn) [Compound 26, 1-(4-ethylphenyl)-2-methyl-3-(2-methyl-1H-imidazol-1-yl)-propan-1-one] | ◎ | - | ◎ | 
CC(Cn1ccnc1)C(=O)c1ccc(C(C)(C)C)cc1 (stereo not drawn) [Compound 11, 1-(4-t-butylphenyl)-3-(1H-imidazol-1-yl)-2-methylpropan-1-one] |  |  | 0 | Anti-strychnine effect Effect (Male Slc-ddy mice [3]): 0
CCc1ccc(C(=O)C(Cn2ccnc2)c2ccccc2)cc1 (stereo not drawn) [Compound 19, 1-(4-ethylphenyl)-3-(1H-imidazol-1-yl)-2-phenylpropan-1-one] | ◎ | - | ◎ | 
CCc1ccc(C(=O)C(CC)Cn2ccnc2)cc1.Cl (stereo not drawn) [Compound 18, 2-ethyl-1-(4-ethylphenyl)-3-(1H-imidazol-1-yl)-propan-1-one hydrochloride] | ◎ |  | ◎ | 
CCc1ccc(C(=O)C(CN2CCCCC2)c2ccccc2)cc1.Cl (stereo not drawn) [Compound 7, 1-(4-ethylphenyl)-2-phenyl-3-piperidinopropan-1-one hydrochloride] | 0 | - | 0 | 
CCc1ccc(C(=O)C(CC)CN2CCCCC2)cc1.Cl (stereo not drawn) [Compound 4, 2-ethyl-1-(4-ethylphenyl)-3-piperidinopropan-1-one hydrochloride] | 0 | - | 0 | 
Cc1ccc(C(=O)C(C)Cn2ccnc2)cc1 (stereo not drawn) [Compound 16, 3-(1H-imidazol-1-yl)-2-methyl-1-(4-methylphenyl)-propan-1-one] | ◎ |  | ◎ | 
CC(Cn1ccnc1)C(=O)c1ccc(C(C)C)cc1 (stereo not drawn) [Compound 10, 3-(1H-imidazol-1-yl)-1-(4-isopropylphenyl)-2-methylpropan-1-one] | 0 |  | 0 | 
CCc1ccc(C(=O)C(C)n2ccnc2)cc1.Cl (stereo not drawn) [Compound 21, 1-(4-ethylphenyl)-2-(1H-imidazol-1-yl)-propan-1-one hydrochloride] | ◎ | - |  | 
CCc1ccc(C(=O)C(C)Cn2ccnc2)cc1 (stereo not drawn) [Compound 2, 1-(4-ethylphenyl)-3-(1H-imidazol-1-yl)-2-methylpropan-1-one] | ◎ |  | 0 | LD50 at 168 h (Acute toxicity test): 218 mg/kg; ED50 (Male Slc-ddy mice [3]): 135 mg/kg; anti-strychnine effect compared with eperisone hydrochloride (Male Slc-ddy mice [3]): stronger anti-strychnine effect than eperisone hydrochloride; Anti-strychnine effect Effect (Male Slc-ddy mice [3]): ◎; anti-nicotinic effect compared with eperisone hydrochloride (Male Slc-ddy mice [1]): stronger anti-nicotinic effect than eperisone hydrochloride; ED50 (Male Slc-ddy mice [1]): 26 mg/kg; ED50 (Male Slc-ddy mice [2]): 200 mg/kg; inhibitory effect on the motor coordination compared with eperisone hydrochloride (Male Slc-ddy mice [2]): stronger inhibitory effect on the motor coordination than eperisone hydrochloride
